{"source": "patent US6285807A", "about": "“Fiber optic sensor for long-term analyte measurements in fluids” (Trustees of Tufts College, priority 1998, dated 2001)", "key": {"[1]": {"assay": "Fluorescence emission pH titration of carboxy-SNAFL-1 (curve fits for Io, pKin and B)", "format": "physicochemical", "conditions": "for I(543/623) (max) / I(543/623) (min) / pKin: at 21° C.", "excerpt": "Where the fluorescence intensity I=dh and I0 =dhT, the fluorescence intensity when the indicator is fully undissociated, Equation 4 becomes: [formula]\nIn this equation the additional term B is the background fluorescence of the system and is an experimentally-derived value. I can also be the ratio of the fluorescence intensities of the protonated and isosbestic forms, where. I=I545 /Iisos\nThe titration curves are shown for carboxy-SNAFL-1in distilled water and in a 0.67 M solution of NaCl. The solid lines are the theoretical curve fits using Equation 6. […] Experiments were carried out in 0.67 M NaCl because it is necessary to balance the osmotic pressure of the indicator solution in the sensor to that of the test solution. The osmotic pressure of the seawater is equivalent to 0.67 M NaCI.\nThe solid lines in FIG. 2 are theoretical fits of Equation 5. The results for Io, pKin, and B are summarized in Table 2 together with typical values reported elsewhere [Walt, D. R, Gabor, G., Goyet, C. Anal. Chim. Actca 1993, 274, 47; DeGrandpre, M. D., Anal. Chem. 1993, 65 (4), 331; Whitaker, J. E., Haugland, R. P., Prendergast, R P. Anal. Biochem. 1991, 194, 330]."}, "[2]": {"assay": "Sensor calibration for CO2, constants from theoretical fit (indicator in sensor)", "format": "physicochemical", "conditions": "sensor (at 12° C.) (calculated)", "method": "The calibration and operation of the sensor operation of the sensor is based on the Severinghaus electrode principle. When carbon dioxide crosses the membrane, the pH of the indicator solution is given by the Henderson-Hasselbach equation: [formula]\nwhere aT =KH KM pCO2 KH /mol dm^3 atm^-1 is Henry's constant and KM is the membrane constant. Substituting Equation 7 into Equation 5 and rearranging gives: [formula]\nThe dissolved CO2 concentration was determined using Henry's constant [Cox, J. D., Head A. J. J Chem. Soc. Faraday Trans., 1962, 58, 1839]. […] Also, for this calculation the membrane volume was not corrected for the porosity, or water content, of the membrane. These parameters would have opposite effects. In the calibration, aT was assumed to equal the dissolved CO2 in the bulk solution, such that KM =1. The sensitivity of the sensor is approximately ±1 ppm.\nThe theoretical equation relating the fluorescence intensity. ratio to pCO2 was compared to test date and is shown by the solid curve in FIG. 6. The pHo value was calculated from Equation 5 using pKin while Io was derived from the above analysis. There was good agreement between experimental and theoretically-derived data."}, "[3]": {"assay": "Absorbance/emission spectra of carboxy-SNAFL-1 (excitation at 488 nm)", "format": "physicochemical", "conditions": "for Emission (Ex. = 488 nm) (acid): acid form; for Emission (Ex. = 488 nm) (acid) / Emission (Ex. = 488 nm) (base) / Emission (Ex. = 488 nm) (isos): at 21° C.; for Emission (Ex. = 488 nm) (base): base form; for Emission (Ex. = 488 nm) (isos): isosbestic", "excerpt": "These peaks are centered at 540 nm and 620 nm and result from the protonated and deprotonated forms of the dyes respectively. This dual wavelength feature of the dye makes it particularly suitable for use in a ratiometric mode which accounts for system instabilities, such as photobleaching and lamp intensity fluctuations. This dye also has an isosbestic point at 625 run (Ex.=488 nm) which can be used for ratiometric measurements to assess the extent of dye photobleaching over time.\nThe maxima centered at 540 nm and 620 nm arise from the protonated and deprotonated forms of the dye respectively. [drawing 3]\nThe measurement system 100 comprises a Spectra Physics Model 162A-04 argon-ion laser 105 which provides excitation light radiation, typically at 488 nm. The excitation light is passed through a neutral density filter 110 and an angled dichroic mirror 115 to the proximal end 120 of an optical fiber 125 which conveys the excitation light to the distal end 130 of the fiber 125 and illuminates an optical interrogation zone 135 comprising a fluid sample volume with an indicator dye and analyte. In the presence of the analyte, the excitation light causes the indicator dye to emit emitted light energy in the optical interrogation zone 135, which emitted light is conveyed by the fiber 125 to the proximal end 120 and is deflected through 90° by the front surface 116 of the angled dichroic mirror 115. The emitted light is then focussed with lenses 145, filtered through a long wavelength, band-pass filter 150, and passed through a slit 155 into a monochromater 160. The resulting wavelength-dispersed signal is measured with a Pacific Instruments Model 126. photo-counting detection system. The intensity of the excitation light is measured in photon counts per second as either a function of time or of wavelength examined."}, "[4]": {"conditions": "13 and 14; cited from earlier work"}, "[5]": {"conditions": "13 and 14; at 21° C.; cited from earlier work"}, "[6]": {"conditions": "13 and 14, at 21° C., cited from earlier work"}, "[7]": {"conditions": "distilled water (25° C.), 488 nm excitation"}}, "note": "“And” between values parts separate entries of the source, which are not always exact repeats. Identical values can stand only once. Like-named read-outs stand apart in the source and are kept apart here."}
{"substance": "5' (and 6')-carboxyseminaphthofluorescein [carboxy-SNAFL-1]", "values": [{"measurement": "effect of increasing ionic strength on maximum fluorescence intensity", "setting": "[1]; distilled water vs 0.67 M NaCl", "result": "decreases with increasing ionic strength"}, {"measurement": "effect of increasing ionic strength on pKin", "setting": "[1]; distilled water vs 0.67 M NaCl", "result": "decreases pKin"}, {"measurement": "I(543/623) (max)", "setting": "[1]; in 0.67M NaCl", "result": 5.27}, {"measurement": "I(543/623) (min)", "setting": "[1]; in 0.67M NaCl", "result": 0.129}, {"measurement": "pKin", "setting": "[1]; in 0.67M NaCl", "result": 7.67}, {"measurement": "I(543/623) (max)", "setting": "[1]; in H2O", "result": 5.41}, {"measurement": "I(543/623) (min)", "setting": "[1]; in H2O", "result": 0.145}, {"measurement": "pKin", "setting": "[1]; in H2O", "result": 8.01}, {"measurement": "I(543/623) (max)", "setting": "[2]", "result": 5.54}, {"measurement": "pKin", "setting": "[2]", "result": 7.98}, {"measurement": "Emission (Ex. = 488 nm) (acid)", "setting": "[2]; acid form", "result": 545, "unit": "nm"}, {"measurement": "Emission (Ex. = 488 nm) (base)", "setting": "[2]; base form", "result": 610, "unit": "nm"}, {"measurement": "isosbestic point", "setting": "[3]; Ex.=488 nm", "result": 625, "unit": "nm"}, {"measurement": "emission maximum, deprotonated form", "setting": "[3]; [7]", "result": 620, "unit": "nm"}, {"measurement": "emission maximum, protonated form", "setting": "[3]; [7]", "result": 540, "unit": "nm"}, {"measurement": "emission peak, deprotonated form", "setting": "[3]; excited at 488 nm", "result": 620, "unit": "nm"}, {"measurement": "emission peak, protonated form", "setting": "[3]; excited at 488 nm", "result": 540, "unit": "nm"}, {"measurement": "Emission (Ex. = 488 nm) (acid)", "setting": "[3]; in 0.67M NaCl", "result": 542, "unit": "nm"}, {"measurement": "Emission (Ex. = 488 nm) (base)", "setting": "[3]; in 0.67M NaCl", "result": 620, "unit": "nm"}, {"measurement": "Emission (Ex. = 488 nm) (isos)", "setting": "[3]; in 0.67M NaCl", "result": 624, "unit": "nm"}, {"measurement": "Emission (Ex. = 488 nm) (acid)", "setting": "[3]; in H2O", "result": 545, "unit": "nm"}, {"measurement": "Emission (Ex. = 488 nm) (base)", "setting": "[3]; in H2O", "result": 618, "unit": "nm"}, {"measurement": "Emission (Ex. = 488 nm) (isos)", "setting": "[3]; in H2O", "result": 632, "unit": "nm"}, {"measurement": "ΔH°", "setting": "[4]", "result": 3.78, "unit": "kcal/mol"}, {"measurement": "ΔS°", "setting": "[4]", "result": -22.6, "unit": "cal mol^-1 K^-1"}, {"measurement": "ΔpH/ΔT", "setting": "[4]", "result": 0.0192, "unit": "° C.^-1"}, {"measurement": "I(543/623) (max)", "setting": "[5]", "result": 6.13}, {"measurement": "I(543/623) (min)", "setting": "[5]", "result": 0.09}, {"measurement": "pKin", "setting": "[5]", "result": 7.75}, {"measurement": "Absorbance (acid)", "setting": "[6]; acid form", "result": "481 nm and 510 nm"}, {"measurement": "Emission (Ex. = 488 nm) (acid)", "setting": "[6]; acid form", "result": 542, "unit": "nm"}, {"measurement": "Absorbance (base)", "setting": "[6]; base form", "result": 539, "unit": "nm"}, {"measurement": "Emission (Ex. = 488 nm) (base)", "setting": "[6]; base form", "result": 623, "unit": "nm"}, {"measurement": "Emission (Ex. = 488 nm) (isos)", "setting": "[6]; isosbestic", "result": 615, "unit": "nm"}]}
